According to patent US20140255361A1, “ESTROGEN-RECEPTOR BASED LIGAND SYSTEM FOR REGULATING PROTEIN STABILITY” (The Board of Trustees Of The Leland Stanford Junior …, priority 2013, published 2014):
Substitutions are numbered along the chain they refer to. Read-outs that look alike come from different tables or passages of the source.

How the values were obtained:
GFP-ERLID fusion protein = target: T1, GFP-ERLID fusion protein (Homo sapiens, UniProt P03372)
T1 sequence (P03372 with tags, fused parts or gaps): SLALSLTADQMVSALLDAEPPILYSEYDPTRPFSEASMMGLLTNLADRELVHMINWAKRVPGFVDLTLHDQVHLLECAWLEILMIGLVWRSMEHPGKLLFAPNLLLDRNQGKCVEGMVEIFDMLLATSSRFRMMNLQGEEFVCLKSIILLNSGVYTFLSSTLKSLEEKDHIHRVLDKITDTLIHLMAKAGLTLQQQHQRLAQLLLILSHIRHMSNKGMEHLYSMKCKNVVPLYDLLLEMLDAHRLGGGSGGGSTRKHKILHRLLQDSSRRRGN

[1] = target: T2, four point mutant of the estrogen receptor ligand binding domain (L384M, M421G, G521R and Y437S) fused to GFP (Homo sapiens, UniProt P03372, G521R/L384M/M421G/Y537S); conditions: cross-hatched bars, FIG. 7A
T2 sequence (P03372 with tags, fused parts or gaps L384M/M421G/G521R/Y537S): T1 sequence (P03372 with tags, fused parts or gaps) with L80M, M117G, G217R, Y233S

GFP-ERLID = GFP-ERLID (Homo sapiens, UniProt P03372)
HA-Bax-ERLID = HA-Bax-ERLID (Homo sapiens, UniProt P03372)
HA-hRPA2-ERLID = HA-hRPA2-ERLID (Homo sapiens, UniProt P03372)
HA-hUBC13-ERLID = HA-hUBC13-ERLID (Homo sapiens, UniProt P03372)
GFP-LID = assay: Stability of GFP-LID fusion protein by flow cytometry (MFI) in NIH3T3 cells; format: cell-based; conditions: 1 μM Shield-1, 24 hours, FIG. 2
Description: (§1) In studies conducted in support of the invention, and with reference to the Materials and Methods set forth in the Examples section below, the stabilities of two LID domain fusion proteins, a first generation construct based on the FKBP protein, here called “GFP-LID” and a next-generation construct having improved characteristics, here called “GFP-LID #15” were compared. […] For this study, NIH3T3 fibroblast cells were infected with retrovirus expressing GFP-LID or GFP-LID #15. Transduced NIH3T3 cells were treated with or without 1 μM Shield-1 for 24 hours. The fluorescence intensities of these GFP fusions were analyzed by flow cytometry. The median fluorescence intensity (MFI) was used to determine the stability of the GFP fusion proteins.
(§2) The INX ecotropic packaging cell line was transfected using standard Lipofectamine 2000 protocols. Viral supernatants were harvested 48 h post-transfection, filtered. NIH3T3 cells were incubated with the retroviral supernatants supplemented with 4 μg/ml polybrene for 4 h at 37° C. Cells were washed once with PBS and cultured in growth media for 48 hrs to allow for viral integration, then assayed as described.
(§3) Twenty-four hours prior to analysis, transduced NIH3T3 cells were plated at 1×10^5 cells per well of a 12-well plate. […] Cells were analyzed at the Stanford Shared FACS Facility using Vantoo or LSRII with 10,000 events represented.

GFP-LID #15 = assay: Stability of GFP-LID #15 fusion protein by flow cytometry (MFI) in NIH3T3 cells; format: cell-based; conditions: 1 μM Shield-1, 24 hours, FIG. 2
Description: as §1, §2, §3

[2] = test system: YFP-FKBP12 LID domain fusion protein; assay: FACS screen of YFP fused to extended FKBP12 (LID domain) in NIH3T3 cells; format: cell-based, mouse
Description: Human […] protein was modified to include a 19-residue peptide extension at the C-terminus of the FKBP12 protein. Genetic diversity was engineered into this C-terminal extension using synthetic oligonucleotides and PCR, and this library of extended FKBP genes was fused to the 3′-end of the YFP gene. A library of plasmids was stably introduced into NIH3T3 cells using retrovirus, and FACS was used to screen the transduced cells for cells expressing YFP in the absence of the small molecule ligand Shield-1. […] This domain is identified herein by SEQ ID NO: 1.

[3] = target: T3, estrogen receptor ligand binding domain mutants (four and six mutations) (Homo sapiens, UniProt P03372, G521R/L384M/M421G/N519S/T371A/Y537S); assay: Drug-dependent stability of ERLBD mutant clones with YFP or GFP reporter; format: cell-based; conditions: relative to the parent ESR1 sequence
T3 construct: residues 305-549 of estrogen receptor-1, ERS1; YFP or GFP reporter
T3 sequence (P03372 305-549 T371A/L384M/M421G/N519S/G521R/Y537S): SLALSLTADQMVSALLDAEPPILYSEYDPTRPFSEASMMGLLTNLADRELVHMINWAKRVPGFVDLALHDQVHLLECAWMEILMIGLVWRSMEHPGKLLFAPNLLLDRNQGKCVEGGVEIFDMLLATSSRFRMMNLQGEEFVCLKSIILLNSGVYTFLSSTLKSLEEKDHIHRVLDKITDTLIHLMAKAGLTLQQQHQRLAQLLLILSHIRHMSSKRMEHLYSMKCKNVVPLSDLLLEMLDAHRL

wild-type ER LBDs = conditions: cited from earlier work
[4] = SEQ ID NO: 3 fused to GFP, open bars, FIG. 7A

Compound: 4-hydroxytamoxifen [4-OHT]
- stability of GFP-ERLBD (MFI) as a function of amount of ligand (GFP-ERLID fusion protein): dose dependent destabilization
- stability of GFP-ERLID fusion protein (MFI) (GFP-ERLID fusion protein): induces degradation
- stability of fusion protein (MFI) after E2 washout with 4-hydroxytamoxifen in the wash solution (E2 wo+4OHT) (GFP-ERLID fusion protein): destabilizes
- stability of fusion protein (MFI) after ligand exposure (GFP-ERLID fusion protein): destabilizes
- stability of wild type GFP-ERLID fusion protein (MFI) (GFP-ERLID fusion protein): destabilization
- stability of mutant fusion protein (MFI) [1]: destabilization
- level of fusion protein by Western blot (GFP-ERLID): destabilized
- level of fusion protein by Western blot (HA-Bax-ERLID): destabilized
- level of fusion protein by Western blot (HA-hRPA2-ERLID): destabilized
- level of fusion protein by Western blot (HA-hUBC13-ERLID): destabilized

Compound: CC[C@H](C(=O)N1CCCC[C@H]1C(=O)O[C@H](CCc1ccc(OC)c(OC)c1)c1cccc(OCCN2CCOCC2)c1)c1cc(OC)c(OC)c(OC)c1 [Shield-1]
- stability of GFP fusion protein (median fluorescence intensity) (GFP-LID): destabilized
- stability of GFP fusion protein (median fluorescence intensity) (GFP-LID #15): destabilized
- YFP levels on addition of ligand [2]: dropped significantly

Compound: O=C1CCC2(Cc3ccc(Cl)cc3)Cc3cc(O)ccc3C2=C1c1ccc(OCCN2CCCCC2)cc1 (stereo not shown) [CMP8, 9a-(4-Chlorobenzyl)-7-hydroxy-4-[4-(2-piperidin-1-ylethoxy)phenyl]-1,2,9,9a-tetrahydro-3H-fluoren-3-one]
- dynamic range of stability in the presence of ligand [3]: large dynamic
- stability of wild type GFP-ERLID fusion protein (MFI) (GFP-ERLID fusion protein; [4]): destabilization
- stability of mutant fusion protein (MFI) [1]: destabilization
- binding to wild-type ER LBDs (wild-type ER LBDs): does not bind well

Compound: C[C@]12CC[C@@H]3c4ccc(O)cc4C[C@@H](CCCCCCCCC[S+]([O-])CCCC(F)(F)C(F)(F)F)[C@H]3[C@@H]1CC[C@@H]2O (stereo partly shown) [fulvestrant]
- stability of GFP-ERLID fusion protein (GFP-ERLID fusion protein; 10 μM fulvestrant, NIH3T3 cells, FIG. 4): induced degradation
- stability of wild type GFP-ERLID fusion protein (MFI) (GFP-ERLID fusion protein; [4]): destabilization
